Key:
Experiment in all cases: KINOMEscan competition binding
Conditions in all cases: compound 0.5 µM
[1] = test system: PIK3CA (human), P42336 [M1043I]
CDK11B (human) = CDK11B (human) (UniProt P21127)
FGFR3 (human) = FGFR3 (human) (UniProt P22607)
PI4KB (human) = PI4KB (human) (UniProt Q9UBF8)
MLTK (human) = MLTK (human) (UniProt Q9NYL2)
CDK15 (human) = CDK15 (human) (UniProt Q96Q40)
PTK6 (human) = PTK6 (human) (UniProt Q13882)
PDPK1 (human) = PDPK1 (human) (UniProt O15530)
ACVR1 (human) = ACVR1 (human) (UniProt Q04771)
MAP2K2 (human) = MAP2K2 (human) (UniProt P36507)
MAPK9 (human) = MAPK9 (human) (UniProt P45984)
Chain of MAPK9 (human) (P45984 whole entry, looked up): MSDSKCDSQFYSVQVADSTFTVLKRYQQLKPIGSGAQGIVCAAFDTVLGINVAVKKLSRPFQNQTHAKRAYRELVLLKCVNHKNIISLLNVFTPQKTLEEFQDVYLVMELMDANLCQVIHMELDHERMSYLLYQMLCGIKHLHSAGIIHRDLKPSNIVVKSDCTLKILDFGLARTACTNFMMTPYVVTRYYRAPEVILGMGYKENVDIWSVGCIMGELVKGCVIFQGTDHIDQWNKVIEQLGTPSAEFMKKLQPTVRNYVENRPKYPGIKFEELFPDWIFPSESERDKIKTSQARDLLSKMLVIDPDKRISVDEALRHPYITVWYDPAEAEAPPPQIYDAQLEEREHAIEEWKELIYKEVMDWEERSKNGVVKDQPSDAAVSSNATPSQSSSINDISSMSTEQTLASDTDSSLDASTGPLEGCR

PHKG2 (human) = PHKG2 (human) (UniProt P15735)
MAP3K5 (human) = MAP3K5 (human) (UniProt Q99683)
CaMK1 (human) = CaMK1 (human) (UniProt Q14012)
ERBB3 (human) = ERBB3 (human) (UniProt P21860)
MYLK (human) = MYLK (human) (UniProt Q15746)
[2] = target: TYK2 JH2 pseudokinase (human) (UniProt P29597)
LRRK2 (human) = LRRK2 (human) (UniProt Q5S007)
Chain of LRRK2 (human) (Q5S007 whole entry, looked up): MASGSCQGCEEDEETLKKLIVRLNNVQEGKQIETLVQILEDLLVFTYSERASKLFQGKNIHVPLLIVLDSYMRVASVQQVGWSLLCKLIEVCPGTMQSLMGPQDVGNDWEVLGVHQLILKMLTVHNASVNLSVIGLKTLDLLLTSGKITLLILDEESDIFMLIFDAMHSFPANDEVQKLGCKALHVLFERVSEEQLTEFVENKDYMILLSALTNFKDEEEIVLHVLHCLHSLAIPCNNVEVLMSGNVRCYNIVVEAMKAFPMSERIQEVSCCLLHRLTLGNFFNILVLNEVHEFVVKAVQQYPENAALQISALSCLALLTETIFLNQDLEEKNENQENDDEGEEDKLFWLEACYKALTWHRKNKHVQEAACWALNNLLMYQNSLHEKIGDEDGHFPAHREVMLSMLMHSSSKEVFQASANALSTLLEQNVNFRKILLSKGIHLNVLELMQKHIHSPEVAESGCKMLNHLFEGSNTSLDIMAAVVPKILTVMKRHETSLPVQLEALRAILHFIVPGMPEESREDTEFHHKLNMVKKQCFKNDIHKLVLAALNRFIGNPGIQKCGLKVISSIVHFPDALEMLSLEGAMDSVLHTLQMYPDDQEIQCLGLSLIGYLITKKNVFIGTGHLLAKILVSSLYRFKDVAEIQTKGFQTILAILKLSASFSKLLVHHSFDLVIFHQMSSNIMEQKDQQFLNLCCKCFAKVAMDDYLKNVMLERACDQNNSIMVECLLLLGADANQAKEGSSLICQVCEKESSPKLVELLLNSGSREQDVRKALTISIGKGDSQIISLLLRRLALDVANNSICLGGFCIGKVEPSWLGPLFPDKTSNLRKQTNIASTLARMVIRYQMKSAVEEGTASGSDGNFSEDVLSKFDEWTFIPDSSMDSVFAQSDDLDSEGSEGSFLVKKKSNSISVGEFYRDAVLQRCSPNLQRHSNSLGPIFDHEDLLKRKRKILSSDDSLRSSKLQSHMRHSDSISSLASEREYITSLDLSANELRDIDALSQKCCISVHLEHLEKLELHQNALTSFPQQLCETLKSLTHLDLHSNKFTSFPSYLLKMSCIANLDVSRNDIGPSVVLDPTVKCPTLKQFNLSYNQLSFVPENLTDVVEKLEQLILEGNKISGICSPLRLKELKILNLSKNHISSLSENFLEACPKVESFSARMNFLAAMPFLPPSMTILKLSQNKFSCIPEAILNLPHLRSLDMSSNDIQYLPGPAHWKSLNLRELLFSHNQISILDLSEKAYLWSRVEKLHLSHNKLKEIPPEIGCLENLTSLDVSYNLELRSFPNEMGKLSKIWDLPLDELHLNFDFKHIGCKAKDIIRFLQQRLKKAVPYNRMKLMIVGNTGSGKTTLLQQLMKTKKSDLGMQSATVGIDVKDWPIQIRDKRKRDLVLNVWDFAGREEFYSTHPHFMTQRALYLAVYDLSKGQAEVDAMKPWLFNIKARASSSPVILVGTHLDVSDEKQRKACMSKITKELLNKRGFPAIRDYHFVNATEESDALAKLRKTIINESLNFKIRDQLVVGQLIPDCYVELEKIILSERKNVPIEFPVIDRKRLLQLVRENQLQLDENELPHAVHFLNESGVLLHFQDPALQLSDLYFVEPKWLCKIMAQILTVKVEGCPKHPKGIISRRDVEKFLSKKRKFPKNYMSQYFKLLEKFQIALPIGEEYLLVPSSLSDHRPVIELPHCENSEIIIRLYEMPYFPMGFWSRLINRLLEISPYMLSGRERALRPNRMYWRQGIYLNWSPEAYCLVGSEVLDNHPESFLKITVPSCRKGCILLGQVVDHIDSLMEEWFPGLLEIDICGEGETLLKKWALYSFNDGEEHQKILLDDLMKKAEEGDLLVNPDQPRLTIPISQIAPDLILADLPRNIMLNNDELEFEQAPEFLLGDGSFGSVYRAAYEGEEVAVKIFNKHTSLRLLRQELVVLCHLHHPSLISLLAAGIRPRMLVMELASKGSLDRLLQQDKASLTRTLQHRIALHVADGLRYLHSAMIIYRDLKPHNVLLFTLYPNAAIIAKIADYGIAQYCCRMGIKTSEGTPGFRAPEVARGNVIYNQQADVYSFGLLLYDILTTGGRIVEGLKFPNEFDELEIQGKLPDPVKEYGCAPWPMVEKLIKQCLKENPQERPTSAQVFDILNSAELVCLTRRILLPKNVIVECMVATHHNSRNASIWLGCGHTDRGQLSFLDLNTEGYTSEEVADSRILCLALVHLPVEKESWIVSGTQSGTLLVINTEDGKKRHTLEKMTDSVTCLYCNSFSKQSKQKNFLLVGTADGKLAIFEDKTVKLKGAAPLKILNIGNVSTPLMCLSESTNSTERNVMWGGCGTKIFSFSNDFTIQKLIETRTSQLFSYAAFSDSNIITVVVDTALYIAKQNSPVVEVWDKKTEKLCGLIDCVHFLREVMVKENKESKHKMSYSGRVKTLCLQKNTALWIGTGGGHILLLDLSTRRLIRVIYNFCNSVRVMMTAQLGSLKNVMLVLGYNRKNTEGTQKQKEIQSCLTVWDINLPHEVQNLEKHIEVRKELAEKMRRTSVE

HIPK3 (human) = HIPK3 (human) (UniProt Q9H422)
DYRK1B (human) = DYRK1B (human) (UniProt Q9Y463)
MAP3K2 (human) = MAP3K2 (human) (UniProt Q9Y2U5)
PIP4K2B (human) = PIP4K2B (human) (UniProt P78356)
EPHB3 (human) = EPHB3 (human) (UniProt P54753)
PAK2 (human) = PAK2 (human) (UniProt Q13177)
NEK1 (human) = NEK1 (human) (UniProt Q96PY6)
[3] = test system: ABL1 (human), P00519 [E255K]
INSR (human) = INSR (human) (UniProt P06213)
PIP4K2C (human) = PIP4K2C (human) (UniProt Q8TBX8)
PRKD2 (human) = PRKD2 (human) (UniProt Q9BZL6)
MAP4K5 (human) = MAP4K5 (human) (UniProt Q9Y4K4)
PIP5K1C (human) = PIP5K1C (human) (UniProt O60331)
NIM1 (human) = NIM1 (human) (UniProt Q8IY84)
RPS6KA4 KD1 (human) = RPS6KA4 KD1 (human) (UniProt O75676)
Chain of RPS6KA4 KD1 (human) (O75676 whole entry, looked up): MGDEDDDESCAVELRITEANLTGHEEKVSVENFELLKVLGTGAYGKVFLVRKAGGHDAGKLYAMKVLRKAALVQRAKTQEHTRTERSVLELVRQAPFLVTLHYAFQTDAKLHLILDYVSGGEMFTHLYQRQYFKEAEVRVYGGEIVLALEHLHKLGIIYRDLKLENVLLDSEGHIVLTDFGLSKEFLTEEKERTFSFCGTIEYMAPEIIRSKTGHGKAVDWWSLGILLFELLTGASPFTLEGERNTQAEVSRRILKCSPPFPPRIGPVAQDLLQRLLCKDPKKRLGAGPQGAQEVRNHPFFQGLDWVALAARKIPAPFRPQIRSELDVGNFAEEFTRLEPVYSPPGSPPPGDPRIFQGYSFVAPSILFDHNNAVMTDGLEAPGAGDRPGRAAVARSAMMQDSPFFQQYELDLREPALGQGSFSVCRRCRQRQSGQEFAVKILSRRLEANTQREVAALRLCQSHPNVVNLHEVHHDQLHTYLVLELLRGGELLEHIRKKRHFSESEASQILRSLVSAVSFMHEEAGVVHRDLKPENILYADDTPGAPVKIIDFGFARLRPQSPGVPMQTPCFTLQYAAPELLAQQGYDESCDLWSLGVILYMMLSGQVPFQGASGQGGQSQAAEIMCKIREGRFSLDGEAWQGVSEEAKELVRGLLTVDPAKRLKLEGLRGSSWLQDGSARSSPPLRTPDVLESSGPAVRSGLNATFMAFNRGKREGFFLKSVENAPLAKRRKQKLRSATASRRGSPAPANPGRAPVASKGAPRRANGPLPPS

RPS6KA5 KD1 (human) = RPS6KA5 KD1 (human) (UniProt O75582)
Chain of RPS6KA5 KD1 (human) (O75582 whole entry, looked up): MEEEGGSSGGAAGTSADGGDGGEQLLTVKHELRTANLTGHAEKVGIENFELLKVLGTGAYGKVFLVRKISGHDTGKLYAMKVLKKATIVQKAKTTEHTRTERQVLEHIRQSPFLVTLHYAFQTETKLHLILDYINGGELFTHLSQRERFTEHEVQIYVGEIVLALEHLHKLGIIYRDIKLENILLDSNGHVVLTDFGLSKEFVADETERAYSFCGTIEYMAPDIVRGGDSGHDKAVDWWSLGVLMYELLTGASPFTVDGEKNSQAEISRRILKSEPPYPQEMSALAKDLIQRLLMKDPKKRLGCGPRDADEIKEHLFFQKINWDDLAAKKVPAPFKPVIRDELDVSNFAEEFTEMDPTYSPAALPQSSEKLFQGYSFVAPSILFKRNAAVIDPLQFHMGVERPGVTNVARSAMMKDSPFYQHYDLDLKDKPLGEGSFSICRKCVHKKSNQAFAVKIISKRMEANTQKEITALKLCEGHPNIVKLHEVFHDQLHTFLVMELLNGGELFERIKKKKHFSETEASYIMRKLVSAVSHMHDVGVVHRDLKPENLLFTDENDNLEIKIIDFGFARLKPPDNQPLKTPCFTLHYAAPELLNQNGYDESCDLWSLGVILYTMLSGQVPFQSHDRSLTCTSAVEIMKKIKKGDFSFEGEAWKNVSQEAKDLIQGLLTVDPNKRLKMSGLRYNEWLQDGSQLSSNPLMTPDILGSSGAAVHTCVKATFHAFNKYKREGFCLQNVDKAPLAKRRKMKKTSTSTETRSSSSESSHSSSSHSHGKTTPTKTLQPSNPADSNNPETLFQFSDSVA

RIOK2 (human) = RIOK2 (human) (UniProt Q9BVS4)
[4] = test system: LRRK2 (human), Q5S007 [G2019S]
Chain of LRRK2 (human), Q5S007 [G2019S] (Q5S007 whole entry G2019S, looked up): as the sequence (Q5S007 whole entry, looked up) above, with G2019S counted along it

MYLK2 (human) = MYLK2 (human) (UniProt Q9H1R3)
CSNK1A1 (human) = CSNK1A1 (human) (UniProt P48729)
MAPK12 (human) = MAPK12 (human) (UniProt P53778)
SRPK3 (human) = SRPK3 (human) (UniProt Q9UPE1)
IKBKB (human) = IKBKB (human) (UniProt O14920)

Chain of CDK15 (human) (Q96Q40 whole entry, looked up): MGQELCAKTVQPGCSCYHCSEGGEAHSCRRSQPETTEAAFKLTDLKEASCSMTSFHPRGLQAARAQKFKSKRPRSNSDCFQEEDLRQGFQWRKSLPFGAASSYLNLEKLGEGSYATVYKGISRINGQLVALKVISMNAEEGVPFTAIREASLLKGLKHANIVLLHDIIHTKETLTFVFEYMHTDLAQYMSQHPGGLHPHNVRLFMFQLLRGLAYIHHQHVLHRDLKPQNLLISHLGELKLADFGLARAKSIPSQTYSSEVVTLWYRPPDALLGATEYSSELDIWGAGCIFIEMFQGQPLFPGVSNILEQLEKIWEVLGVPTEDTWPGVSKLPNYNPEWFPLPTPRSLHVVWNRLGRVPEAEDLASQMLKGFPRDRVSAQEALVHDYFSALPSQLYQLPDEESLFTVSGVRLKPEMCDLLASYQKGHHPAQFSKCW

SMILES: Cn1c2ccccc2c2c3c(c4c5ccccc5n(CCC#N)c4c21)CNC3=O
- kinase still bound, per cent of control [1]: 93%
- kinase still bound, per cent of control (CDK11B (human)): 100%
- kinase still bound, per cent of control (FGFR3 (human)): 97%
- kinase still bound, per cent of control (PI4KB (human)): 62%
- kinase still bound, per cent of control (MLTK (human)): 96%
- kinase still bound, per cent of control (CDK15 (human)): 100%
- kinase still bound, per cent of control (PTK6 (human)): 77%
- kinase still bound, per cent of control (PDPK1 (human)): 41%
- kinase still bound, per cent of control (ACVR1 (human)): 21%
- kinase still bound, per cent of control (MAP2K2 (human)): 61%
- kinase still bound, per cent of control (MAPK9 (human)): 46%
- kinase still bound, per cent of control (PHKG2 (human)): 4.4%
- kinase still bound, per cent of control (MAP3K5 (human)): 56%
- kinase still bound, per cent of control (CaMK1 (human)): 76%
- kinase still bound, per cent of control (ERBB3 (human)): 94%
- kinase still bound, per cent of control (MYLK (human)): 56%
- kinase still bound, per cent of control [2]: 84%
- kinase still bound, per cent of control (LRRK2 (human)): 19%
- kinase still bound, per cent of control (HIPK3 (human)): 12%
- kinase still bound, per cent of control (DYRK1B (human)): 12%
- kinase still bound, per cent of control (MAP3K2 (human)): 0.1%
- kinase still bound, per cent of control (PIP4K2B (human)): 2%
- kinase still bound, per cent of control (EPHB3 (human)): 85%
- kinase still bound, per cent of control (PAK2 (human)): 51%
- kinase still bound, per cent of control (NEK1 (human)): 99%
- kinase still bound, per cent of control [3]: 75%
- kinase still bound, per cent of control (INSR (human)): 84%
- kinase still bound, per cent of control (PIP4K2C (human)): 75%
- kinase still bound, per cent of control (PRKD2 (human)): 4.8%
- kinase still bound, per cent of control (MAP4K5 (human)): 7.8%
- kinase still bound, per cent of control (PIP5K1C (human)): 100%
- kinase still bound, per cent of control (NIM1 (human)): 100%
- kinase still bound, per cent of control (RPS6KA4 KD1 (human)): 46%
- kinase still bound, per cent of control (RPS6KA5 KD1 (human)): 52%
- kinase still bound, per cent of control (RIOK2 (human)): 64%
- kinase still bound, per cent of control [4]: 9.4%
- kinase still bound, per cent of control (MYLK2 (human)): 58%
- kinase still bound, per cent of control (CSNK1A1 (human)): 100%
- kinase still bound, per cent of control (MAPK12 (human)): 68%
- kinase still bound, per cent of control (SRPK3 (human)): 3.8%
- kinase still bound, per cent of control (IKBKB (human)): 50%

Source: the kinase profiling compilation of Christmann-Franck et al. (2016)
